Legend:
Type in all cases: in vivo
corn (Zea mays, ZEAMX) = assay: Test A pre-emergence, corn; settings: after 13 d
Procedure, shortened: (§1)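 Damage rated 0–100 (100 = total) 13 d after spraying. Application was one day post-sowing at 15.625, 62.5 or 250 g/ha, formulated in 50:50 acetone/water plus 0.5% Tween 20. Pots held in glasshouse at 24/16 °C day/night, 14 h light, 65% humidity, watered twice daily.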

[1] = system: giant foxtail (Setaria faberi, SETFA); assay: Test A pre-emergence, giant foxtail; settings: after 13 d
Procedure, shortened: as §1

[2] = system: velvetleaf (Abutilon theophrasti, ABUTH); assay: Test A pre-emergence, velvetleaf; settings: after 13 d
Procedure, shortened: as §1

[3] = system: barnyardgrass (Echinochloa crus-galli, ECHCG); assay: Test A post-emergence, barnyardgrass; settings: after 13 d
Procedure, shortened: (§2)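 Foliar application to 8-day-old seedlings at 15.625, 62.5 or 250 g/ha; phytotoxicity scored 0–100 after 13 d.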

[4] = system: ivy-leaved morning glory (Ipomoea hederacea, IPOHE); assay: Test A post-emergence, ivy-leaved morning glory; settings: after 13 d
Procedure, shortened: as §2

[5] = system: redroot pigweed (Amaranthus retroflexus, AMARE); assay: Test A post-emergence, redroot pigweed; settings: after 13 d
Procedure, shortened: as §2

[6] = system: velvetleaf (Abutilon theophrasti, ABUTH); assay: Test A post-emergence, velvetleaf; settings: after 13 d
Procedure, shortened: as §2

wheat = assay: Test D pre-emergence, wheat seed treated with a herbicide safener; settings: 100=total damage, 0=no damage
Experimental: (§3) A formulation containing 50 g/L of the test chemical was prepared by dissolving the active ingredient in a mixture of organic solvents and emulsifier, details of which are provided in the table. This formulation was then mixed with a small, variable amount of acetone to aid dissolution, before addition of a 0.2% v/v aqueous solution of an adjuvant, as the aqueous diluent, to form an aqueous spray solution which contains a predetermined concentration of the active ingredient.
(§4) This aqueous spray solution was then sprayed onto plants including maize and wheat that had been seed treated with a herbicide safener, after one day's cultivation (for pre-emergence) or after about 12 days' cultivation (for post-emergence). The plants were grown from seeds sown in standard soil, placed in a glasshouse under controlled conditions (at 24/18° C. or 20/16° C., day/night; 16 h light; 65% humidity). After spray application the plants were then grown in a glasshouse under the same conditions and watered twice daily. After 15 d for post-emergence and 20 DAA for pre-emergence the test was evaluated (100=total damage to plant; 0=no damage to plant).

maize = assay: Test D post-emergence, maize seed treated with a herbicide safener
Experimental: as §3, §4

SMILES | damage to plant (100=total damage; 0=no damage) ZEAMX (corn (Zea mays, ZEAMX); Pre-Emergence at 62.5 g/ha) | damage to plant (100=total damage; 0=no damage) ZEAMX (corn (Zea mays, ZEAMX); Pre-Emergence at 250 g/ha) | damage to plant (100=total damage; 0=no damage) SETFA ([1]; Pre-Emergence at 62.5 g/ha) | damage to plant (100=total damage; 0=no damage) SETFA ([1]; Pre-Emergence at 250 g/ha) | damage to plant (100=total damage; 0=no damage) ABUTH ([2]; Pre-Emergence at 62.5 g/ha) | damage to plant (100=total damage; 0=no damage) ABUTH ([2]; Pre-Emergence at 250 g/ha) | damage to plant (100=total damage; 0=no damage) ECHCG ([3]; Post-Emergence at 62.5 g/ha) | damage to plant (100=total damage; 0=no damage) ECHCG ([3]; Post-Emergence at 250 g/ha) | damage to plant (100=total damage; 0=no damage) IPOHE ([4]; Post-Emergence at 62.5 g/ha) | damage to plant (100=total damage; 0=no damage) IPOHE ([4]; Post-Emergence at 250 g/ha) | damage to plant (100=total damage; 0=no damage) AMARE ([5]; Post-Emergence at 62.5 g/ha) | damage to plant (100=total damage; 0=no damage) AMARE ([5]; Post-Emergence at 250 g/ha) | damage to plant (100=total damage; 0=no damage) ABUTH ([6]; Post-Emergence at 62.5 g/ha) | damage to plant (100=total damage; 0=no damage) ABUTH ([6]; Post-Emergence at 250 g/ha) | damage to plant, TRZAW (wheat; rate 15, 20 DAA) | damage to plant, TRZAW (wheat; rate 30, 20 DAA) | damage to plant, TRZAW (wheat; rate 60, 20 DAA) | damage to plant, TRZAW (wheat; rate 130, 20 DAA) | damage to plant, TRZAW (wheat; rate 250, 20 DAA) | damage to plant, TRZAW (wheat; rate 500, 20 DAA) | further results
CN1CC(c2cc(C(F)(F)F)n(C)n2)C(C(=O)Nc2ccc(F)c(F)c2F)C1=O (racemic) [Compound 17] | 70 | 90 | 90 | 90 | 0 | 10 | 70 | 80 | 0 | 0 | 20 | 50 | 0 | 0 | 0 | 0 | 0 | 50 | 60 | 90 | damage to plant (100=total damage; 0=no damage) ZEAMX (corn (Zea mays, ZEAMX); Pre-Emergence at 15.625 g/ha): 60; damage to plant (100=total damage; 0=no damage) SETFA ([1]; Pre-Emergence at 15.625 g/ha): 90; damage to plant (100=total damage; 0=no damage) ABUTH ([2]; Pre-Emergence at 15.625 g/ha): 0; damage to plant (100=total damage; 0=no damage) ECHCG ([3]; Post-Emergence at 15.625 g/ha): 60; damage to plant (100=total damage; 0=no damage) IPOHE ([4]; Post-Emergence at 15.625 g/ha): 0; damage to plant (100=total damage; 0=no damage) AMARE ([5]; Post-Emergence at 15.625 g/ha): 0; damage to plant (100=total damage; 0=no damage) ABUTH ([6]; Post-Emergence at 15.625 g/ha): 0; damage to plant (100=total damage to plant; 0=no damage to plant), ZEAMX (maize; rate 130, evaluated after 15 d): 0; damage to plant (100=total damage to plant; 0=no damage to plant), ZEAMX (maize; rate 250, evaluated after 15 d): 0; damage to plant (100=total damage to plant; 0=no damage to plant), ZEAMX (maize; rate 500, evaluated after 15 d): 0
CN1CC(c2cc(C(F)(F)F)n(C)n2)C(C(=O)Nc2ccc(F)cc2F)C1=O (racemic) [Compound 6] | 20 | 60 | 90 | 90 | 70 | 70 | 70 | 70 | 20 | 10 | 10 | 10 | 70 | 60 | 0 | 0 | 0 | 0 | 0 | 10 | damage to plant (100=total damage; 0=no damage) ZEAMX (corn (Zea mays, ZEAMX); Pre-Emergence at 15.625 g/ha): 10; damage to plant (100=total damage; 0=no damage) SETFA ([1]; Pre-Emergence at 15.625 g/ha): 80; damage to plant (100=total damage; 0=no damage) ABUTH ([2]; Pre-Emergence at 15.625 g/ha): 80; damage to plant (100=total damage; 0=no damage) ECHCG ([3]; Post-Emergence at 15.625 g/ha): 70; damage to plant (100=total damage; 0=no damage) IPOHE ([4]; Post-Emergence at 15.625 g/ha): 40; damage to plant (100=total damage; 0=no damage) AMARE ([5]; Post-Emergence at 15.625 g/ha): 0; damage to plant (100=total damage; 0=no damage) ABUTH ([6]; Post-Emergence at 15.625 g/ha): 60; damage to plant (100=total damage to plant; 0=no damage to plant), ZEAMX (maize; rate 130, evaluated after 15 d): 0; damage to plant (100=total damage to plant; 0=no damage to plant), ZEAMX (maize; rate 250, evaluated after 15 d): 10; damage to plant (100=total damage to plant; 0=no damage to plant), ZEAMX (maize; rate 500, evaluated after 15 d): 20
CN1CC(c2cc(C(F)(F)F)n(C)n2)C(C(=O)Nc2ccc(F)cc2C(C)(F)F)C1=O (racemic) [Compound 26] | 70 | 90 | 90 | 90 | 0 | 0 | 70 | 90 | 20 | 50 | 0 | 0 | 0 | 0 | 0 | 0 | 0 | 10 | 70 | 30 | damage to plant (100=total damage to plant; 0=no damage to plant), ZEAMX (maize; rate 130, evaluated after 15 d): 0; damage to plant (100=total damage to plant; 0=no damage to plant), ZEAMX (maize; rate 250, evaluated after 15 d): 0; damage to plant (100=total damage to plant; 0=no damage to plant), ZEAMX (maize; rate 500, evaluated after 15 d): 10
COc1c(F)cccc1NC(=O)C1C(=O)N(C)CC1c1cc(C(F)(F)F)n(C)n1 (racemic) [Compound 18] | 60 | 80 | 90 | 90 | 0 | 0 | 70 | 70 | 20 | 50 | 0 | 0 | 0 | 0 | 0 | 0 | 0 | 0 | 20 | 30 | damage to plant (100=total damage; 0=no damage) ZEAMX (corn (Zea mays, ZEAMX); Pre-Emergence at 15.625 g/ha): 30; damage to plant (100=total damage; 0=no damage) SETFA ([1]; Pre-Emergence at 15.625 g/ha): 90; damage to plant (100=total damage; 0=no damage) ABUTH ([2]; Pre-Emergence at 15.625 g/ha): 0; damage to plant (100=total damage; 0=no damage) ECHCG ([3]; Post-Emergence at 15.625 g/ha): 50; damage to plant (100=total damage; 0=no damage) IPOHE ([4]; Post-Emergence at 15.625 g/ha): 10; damage to plant (100=total damage; 0=no damage) AMARE ([5]; Post-Emergence at 15.625 g/ha): 0; damage to plant (100=total damage; 0=no damage) ABUTH ([6]; Post-Emergence at 15.625 g/ha): 0; damage to plant (100=total damage to plant; 0=no damage to plant), ZEAMX (maize; rate 130, evaluated after 15 d): 0; damage to plant (100=total damage to plant; 0=no damage to plant), ZEAMX (maize; rate 250, evaluated after 15 d): 0; damage to plant (100=total damage to plant; 0=no damage to plant), ZEAMX (maize; rate 500, evaluated after 15 d): 10
CCn1nc([C@H]2CN(C)C(=O)[C@@H]2C(=O)Nc2cccc(F)c2F)c2ccc(F)cc21 [Compound 4] | 40 | 80 | 90 | 90 | 0 | 0 | 90 | 90 | 0 | 20 | 20 | 20 | 0 | 20 | 0 | 0 | 0 | 0 | 0 | 0 | damage to plant (100=total damage; 0=no damage) ZEAMX (corn (Zea mays, ZEAMX); Pre-Emergence at 15.625 g/ha): 0; damage to plant (100=total damage; 0=no damage) SETFA ([1]; Pre-Emergence at 15.625 g/ha): 80; damage to plant (100=total damage; 0=no damage) ABUTH ([2]; Pre-Emergence at 15.625 g/ha): 0; damage to plant (100=total damage; 0=no damage) ECHCG ([3]; Post-Emergence at 15.625 g/ha): 80; damage to plant (100=total damage; 0=no damage) IPOHE ([4]; Post-Emergence at 15.625 g/ha): 0; damage to plant (100=total damage; 0=no damage) AMARE ([5]; Post-Emergence at 15.625 g/ha): 0; damage to plant (100=total damage; 0=no damage) ABUTH ([6]; Post-Emergence at 15.625 g/ha): 0

Reference: patent US20220281848A1, “PYRAZOLE-SUBSTITUTED PYRROLIDINONES AS HERBICIDES” (FMC Corporation, priority 2019, published 2022)
